Results taken from article PMC3493617 (Journal of the American Chemical Society, 2012).
Values joined by “and” are separate entries in the source; they are usually repeats but may differ in a detail not shown here. Equal entries are not always repeated.

Assays:
AfUGM [1] = target: T1, AfUGM (Aspergillus fumigatus, UniProt Q4W1X2); assay: Stopped-flow kinetics of flavin reduction of AfUGM by NAD; format: biochemical; conditions: for kred / Kd / kred/Kd: AfUGM wild type; for kred / Kd: anaerobic, 15 °C; for kred: pH 7.0, flavin absorbance 452 nm; for Kd: pH 7.0, from fit of kobs; for kred/Kd: catalytic efficiency
AfUGM [2] = target: T1, AfUGM; assay: Kinetic isotope effect on flavin reduction of AfUGM with deuterated coenzymes; format: biochemical
AfUGM R91A = AfUGM R91A (Aspergillus fumigatus, UniProt Q4W1X2, R91A); format: biochemical; conditions: R91A mutant
AfUGM S93A = AfUGM S93A (Aspergillus fumigatus, UniProt Q4W1X2, S93A); format: biochemical; conditions: S93A mutant
[3] = target: Mycobacterium tuberculosis UGM (Mycobacterium tuberculosis, UniProt P9WIQ1); assay: Reduction of Mycobacterium tuberculosis UGM by NADPH; format: biochemical; conditions: estimated (Figure S5)
TcUGM = conditions: cited from earlier work
[4] = pro-R H atom substituted with D

Compound | kred (AfUGM [1]) | Kd (AfUGM [1]) [µM] | kred/Kd (AfUGM [1]) | KIE on flavin reduction (AfUGM [2]; [4]) | catalytic efficiency of AfUGM relative to TcUGM (AfUGM [1]; kred/Kd AfUGM vs TcUGM) [times] | Kd (AfUGM R91A) [µM] | Variational Effect (kred/Kd of variant)/(kred/Kd of AfUGM) (AfUGM R91A) | kred/Kd (AfUGM R91A) [M⁻¹ s⁻¹] | kred (AfUGM R91A; anaerobic, 15 °C, pH 7.0) [s⁻¹] | Kd (AfUGM S93A) [µM] | Variational Effect (kred/Kd of variant)/(kred/Kd of AfUGM) (AfUGM S93A) | kred/Kd (AfUGM S93A) [M⁻¹ s⁻¹] | kred (AfUGM S93A; anaerobic, 15 °C, pH 7.0) [s⁻¹] | kred [3] [s⁻¹] | Kd (TcUGM) [µM] | kred (TcUGM) [s⁻¹] | kred/Kd (TcUGM) [M⁻¹ s⁻¹] | KIE on flavin reduction (AfUGM [2]; pro-S deuterated coenzyme used to reduce AfUGM)
NC(=O)C1=CN([C@@H]2O[C@H](COP(=O)(O)OP(=O)(O)OC[C@H]3O[C@@H](n4cnc5c(N)ncnc54)[C@H](O)[C@@H]3O)[C@@H](O)[C@H]2O)C=CC1 [NADH] | 0.2 s⁻¹ and 0.172 ± 0.003 s⁻¹ | 260 ± 20 | 670 M⁻¹ s⁻¹ and 670 ± 50 M⁻¹ s⁻¹ | 6.0 ± 0.7 |  |  |  |  |  |  |  |  |  |  |  |  |  | 
NC(=O)C1=CN([C@@H]2O[C@H](COP(=O)(O)OP(=O)(O)OC[C@H]3O[C@@H](n4cnc5c(N)ncnc54)[C@H](OP(=O)(O)O)[C@@H]3O)[C@@H](O)[C@H]2O)C=CC1 [NADPH] | 3 s⁻¹ and 2.98 ± 0.078 s⁻¹ | 25 ± 2 | 120000 M⁻¹ s⁻¹ and 120000 ± 10000 M⁻¹ s⁻¹ | 3.0 ± 0.1 | 20 | 330 ± 20 | 0.008 ± 0.001 | 980 ± 70 | 0.313 ± 0.008 | 21 ± 8 | 0.07 ± 0.03 | 8000 ± 3000 | 0.17 ± 0.01 | 0.00002 | 98 | 0.6 | 6000 | 
[2H]C1C=CN(C2OC(COP(=O)(O)OP(=O)(O)OCC3OC(n4cnc5c(N)ncnc54)C(OP(=O)(O)O)C3O)C(O)C2O)C=C1C(N)=O (stereo not shown) [pro-S NADPD] |  |  |  |  |  |  |  |  |  |  |  |  |  |  |  |  |  | 0.93 ± 0.03
